Results taken from the NIST ThermoML archive (doi:10.1016/j.jct.2011.03.013).
“And” between values parts separate entries of the source, which are not always exact repeats. Equal values may be shown once. Numbers after ± are expanded uncertainties.

Settings: Crystal; for vapor or sublimation pressure: Calculated from knudsen effusion weight loss; for molar enthalpy of sublimation: 298.15 K, Drop Calorimetry

N#Cc1cccc2ccccc12 [1-cyanonaphthalene]
Settings	molar enthalpy of sublimation [kcal/mol]	vapor or sublimation pressure
–	21.1 ± 0.813	–
289.1 K	–	0.00012 ± 6e-06 kPa and 0.000125 ± 6e-06 kPa
291.12 K	–	0.000163 ± 8e-06 kPa and 0.000156 ± 8e-06 kPa and 0.000157 ± 8e-06 kPa
293.12 K	–	0.000208 ± 1e-05 kPa and 0.0002 ± 1e-05 kPa and 0.000196 ± 1e-05 kPa
295.12 K	–	0.000275 ± 1.4e-05 kPa and 0.000251 ± 1.3e-05 kPa and 0.000265 ± 1.3e-05 kPa
297.13 K	–	0.000324 ± 1.6e-05 kPa and 0.000319 ± 1.6e-05 kPa
299.13 K	–	0.000426 ± 2.1e-05 kPa and 0.000418 ± 2.1e-05 kPa and 0.000416 ± 2.1e-05 kPa
301.12 K	–	0.000535 ± 2.7e-05 kPa and 0.000532 ± 2.7e-05 kPa and 0.000527 ± 2.6e-05 kPa
303.3 K	–	0.000724 ± 3.6e-05 kPa and 0.00069 ± 3.5e-05 kPa and 0.000686 ± 3.4e-05 kPa
305.12 K	–	0.000843 ± 4.2e-05 kPa and 0.000849 ± 4.2e-05 kPa and 0.00084 ± 4.2e-05 kPa
307 K	–	0.001033 ± 0.0001 kPa and 0.001044 ± 0.00011 kPa and 0.001034 ± 0.0001 kPa

N#Cc1ccc2ccccc2c1 [2-naphthalenecarbonitrile]
Settings	molar enthalpy of sublimation [kcal/mol]	vapor or sublimation pressure
–	21.7 ± 0.765	–
296.18 K	–	9e-05 ± 5e-06 kPa and 9.2e-05 ± 5e-06 kPa and 9.1e-05 ± 5e-06 kPa
298.11 K	–	0.000115 ± 6e-06 kPa and 0.000117 ± 6e-06 kPa and 0.000116 ± 6e-06 kPa
300.19 K	–	0.000159 ± 8e-06 kPa and 0.000153 ± 8e-06 kPa and 0.000154 ± 8e-06 kPa
302.18 K	–	0.000196 ± 1e-05 kPa and 0.000201 ± 1e-05 kPa and 0.000197 ± 1e-05 kPa
304.1 K	–	0.000245 ± 1.2e-05 kPa and 0.000244 ± 1.2e-05 kPa
306.18 K	–	0.000319 ± 1.6e-05 kPa and 0.000303 ± 1.5e-05 kPa and 0.000304 ± 1.5e-05 kPa
308.15 K	–	0.000391 ± 2e-05 kPa and 0.000388 ± 1.9e-05 kPa and 0.000396 ± 2e-05 kPa
310.09 K	–	0.000487 ± 2.4e-05 kPa and 0.000485 ± 2.4e-05 kPa and 0.000491 ± 2.5e-05 kPa
312.19 K	–	0.000636 ± 3.2e-05 kPa and 0.000617 ± 3.1e-05 kPa and 0.000618 ± 3.1e-05 kPa
314.16 K	–	0.000783 ± 3.9e-05 kPa and 0.000762 ± 3.8e-05 kPa and 0.000803 ± 4e-05 kPa
316.1 K	–	0.000948 ± 4.7e-05 kPa and 0.000947 ± 4.7e-05 kPa and 0.000994 ± 5e-05 kPa
